Test results reported in patent US20240279201A1, “DUAL WNT SIGNALING PATHWAY INHIBITORS AND AMPK ACTIVATORS FOR TREATMENTS OF DISEASE” (priority 2021, published 2024).

Tests used:
[1] = tested on: Wnt/β-Catenin signaling pathway; assay: Wnt signaling luciferase (TOPflash) reporter gene assay; assay type: cell-based; details: for IC50: luciferase reporter gene assay, mean of three independent experiments, read-out: IC50 (nM) to inhibit the Wnt signaling activity
From the text: A dual-luciferase gene reporter assay was used to test inhibitory activities of new compounds on Wnt signaling. […] Therefore, the effects of new compounds on AMPK was examined. […]

[2] = Cytotoxicity (CC50) during the luciferase gene reporter assay; assay type: cell-based; details: human, HEK293 cells; short treatment duration of the luciferase gene reporter assay

Structure (SMILES) | inhibition at 1 µM [1] [%] | IC50 [1] [nM] | CC50 [2] [nM]
Cc1c(C(=O)Nc2nc3ccccc3s2)nnn1-c1ccc(Cl)cc1 [YA1074, N-(Benzo[d]thiazol-2-yl)-1-(4-chlorophenyl)-5-methyl-1H-1,2,3-triazole-4-carboxamide] | 18 | > 1000 | > 92000
Cc1ccccc1-n1nnc(C(=O)Nc2nc(-c3ccccc3)c(-c3ccccc3)s2)c1C [YA4133, N-(4,5-Diphenylthiazol-2-yl)-5-methyl-1-(o-tolyl)-1H-1,2,3-triazole-4-carboxamide] | 49 | > 1000 | > 92000
Cc1c(C(=O)Nc2nc3ccccc3s2)nnn1-c1ccc(F)cc1 [YA1076, N-(Benzo[d]thiazol-2-yl)-1-(4-fluorophenyl)-5-methyl-1H-1,2,3-triazole-4-carboxamide] | 15 | > 1000 | > 92000
Cc1ccccc1-n1nnc(C(=O)Nc2ccc3c(Br)cccc3n2)c1C [YA6167, N-(5-Bromoquinolin-2-yl)-5-methyl-1-(o-tolyl)-1H-1,2,3-triazole-4-carboxamide] |  | > 1000 | > 92000
Cc1c(C(=O)Nc2nc3ccccc3s2)cnn1-c1ccccc1F [YA4007, N-(Benzo[d]thiazol-2-yl)-1-(2-fluorophenyl)-5-methyl-1H-pyrazole-4-carboxamide] |  | 1.3 | > 92000
Cc1ccccc1-n1nnc(C(=O)Nc2ccc3ccncc3c2)c1C [YA61691, N-(Isoquinolin-7-yl)-5-methyl-1-(o-tolyl)-1H-1,2,3-triazole-4-carboxamide] |  | > 1000 | > 92000
Cc1c(C(=O)Nc2nc3ccccc3s2)cnn1-c1cccc(Cl)c1F [YA4021, N-(Benzo[d]thiazol-2-yl)-1-(3-chloro-2-fluorophenyl)-5-methyl-1H-pyrazole-4-carboxamide] |  | 9.8 | > 92000
Cc1ccccc1-n1nnc(C(=O)Nc2ccc3cc(B4OC(C)(C)C(C)(C)O4)ccc3n2)c1C [YA6063] |  | 148 | > 92000
Cc1c(C(=O)Nc2nc3ccccc3s2)cnn1-c1ccccc1Br [YA4033, N-(Benzo[d]thiazol-2-yl)-1-(2-bromophenyl)-5-methyl-1H-pyrazole-4-carboxamide] |  | 5.8 | > 92000
CC(C)(C)c1c(C(=O)Nc2nc3ccc(F)cc3s2)nnn1-c1ccccc1F [YA6174, 5-(Tert-butyl)-N-(6-fluorobenzo[d]thiazol-2-yl)-1-(2-fluorophenyl)-1H-1,2,3-triazole-4-carboxamide] | 40 | > 1000 | > 92000
Cc1ccccc1-n1nnc(C(=O)Nc2ccc3cc(O)ccc3n2)c1C [YA6079] |  | > 1000 | > 92000
Cc1ccccc1-n1nnc(C(=O)Nc2ccc3cnccc3c2)c1C [YA61692, N-(Isoquinolin-6-yl)-5-methyl-1-(o-tolyl)-1H-1,2,3-triazole-4-carboxamide] |  | > 1000 | > 92000
CCc1c(C(=O)Nc2nc3ccccc3s2)nnn1-c1ccccc1F [YA4001, N-(Benzo[d]thiazol-2-yl)-5-ethyl-1-(2-fluorophenyl)-1H-1,2,3-triazole-4-carboxamide] |  | 0.76 | > 92000
Cc1ccccc1-n1nnc(C(=O)Nc2nc3cc(F)ccc3s2)c1C [YA4101, N-(5-Fluorobenzo[d]thiazol-2-yl)-5-methyl-1-(o-tolyl)-1H-1,2,3-triazole-4-carboxamide] |  | 16 | > 92000
Cc1ccccc1-n1nnc(C(=O)Nc2cccc3ncccc23)c1C [YA61693, 5-Methyl-N-(quinolin-5-yl)-1-(o-tolyl)-1H-1,2,3-triazole-4-carboxamide] |  | > 1000 | > 92000
Cc1ccccc1-n1nnc(C(=O)Nc2nc3ccc(OC(F)(F)F)cc3s2)c1C [YA4065, 5-Methyl-1-(o-tolyl)-N-(6-(trifluoromethoxy)benzo[d]thiazol-2-yl)-1H-1,2,3-triazole-4-carboxamide] | 16 | > 1000 | > 92000
